Where “and” joins values, the source holds several entries; their conditions need not be identical. Identical values can stand only once.
Assays:
HDAC1 = HDAC1 (Homo sapiens, UniProt Q13547); experiment: HDAC1 enzyme inhibition; assay type: biochemical; conditions: read-out: HDAC inhibition IC50 HDAC1
Protocol: (§1) The inhibitory capacity of DDI199 on HDACs was studied as previously described. The capacity of DDI199 to inhibit MAOs was studied by mimicking the reaction occurring in cells. Briefly, inhibitor solution containing 10 µM of DDI199 or reference compound was incubated for 30 minutes at 37 °C together with the enzyme solution, containing either recombinant hMAO-A (Sigma-Aldrich) at 0.5 U/mL or hMAO-B (Sigma-Aldrich) at 1.5 U/mL. 200 U/mL horseradish peroxidase (Sigma-Aldrich), 20 mM Ampliflu Red (Sigma-Aldrich) and 100 mM tyramine hydrochloride (Sigma-Aldrich) were then added and absorbance at 570 nm was measured every 5 minutes for 30 minutes. Percentage of inhibition was estimated from these values.

recombinant hMAO-A = target: T1, recombinant hMAO-A (Homo sapiens, UniProt P21397); experiment: MAO-A inhibition (Ampliflu Red/peroxidase, tyramine); assay type: biochemical; conditions: 10 µM compound; read-out: MAO-A inhibition percentage
T1 construct: purchased Sigma-Aldrich
T1 sequence (P21397 whole entry): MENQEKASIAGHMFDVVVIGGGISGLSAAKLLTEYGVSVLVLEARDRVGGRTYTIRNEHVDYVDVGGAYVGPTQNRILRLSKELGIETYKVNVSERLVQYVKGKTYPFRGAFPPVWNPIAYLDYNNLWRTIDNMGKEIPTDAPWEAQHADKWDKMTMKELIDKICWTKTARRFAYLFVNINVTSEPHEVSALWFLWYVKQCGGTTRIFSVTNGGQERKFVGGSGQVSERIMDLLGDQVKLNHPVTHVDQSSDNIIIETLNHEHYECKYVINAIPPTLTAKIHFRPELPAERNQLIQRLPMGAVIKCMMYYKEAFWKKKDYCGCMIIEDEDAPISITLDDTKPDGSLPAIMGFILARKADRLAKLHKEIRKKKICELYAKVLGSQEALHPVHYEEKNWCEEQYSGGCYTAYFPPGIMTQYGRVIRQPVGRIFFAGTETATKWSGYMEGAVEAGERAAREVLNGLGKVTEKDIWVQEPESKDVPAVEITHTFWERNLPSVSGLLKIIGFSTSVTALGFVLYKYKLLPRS
Protocol: as §1

recombinant hMAO-B = target: T2, recombinant hMAO-B (Homo sapiens, UniProt P27338); experiment: biochemical
T2 construct: purchased Sigma-Aldrich
T2 sequence (P27338 whole entry): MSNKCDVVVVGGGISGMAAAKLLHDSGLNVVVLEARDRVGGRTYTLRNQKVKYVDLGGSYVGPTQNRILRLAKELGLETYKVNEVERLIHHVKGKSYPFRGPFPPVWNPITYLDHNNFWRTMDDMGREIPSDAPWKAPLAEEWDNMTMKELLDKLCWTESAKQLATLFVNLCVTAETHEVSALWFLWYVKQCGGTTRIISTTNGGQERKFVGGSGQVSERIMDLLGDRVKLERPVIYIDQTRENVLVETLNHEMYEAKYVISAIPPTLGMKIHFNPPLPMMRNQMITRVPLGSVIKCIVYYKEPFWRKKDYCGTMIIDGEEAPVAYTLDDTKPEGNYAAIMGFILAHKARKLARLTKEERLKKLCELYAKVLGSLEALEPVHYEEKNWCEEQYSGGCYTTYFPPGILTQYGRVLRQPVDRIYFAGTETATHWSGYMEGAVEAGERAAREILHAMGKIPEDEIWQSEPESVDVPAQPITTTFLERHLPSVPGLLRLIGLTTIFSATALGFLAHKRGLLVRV
Protocol: as §1

recombinant hAChE = target: T3, recombinant hAChE (Homo sapiens, UniProt P22303); experiment: AChE inhibition, Ellman's colorimetric method; assay type: biochemical; conditions: 10 µM compound; read-out: AChE inhibition percentage
T3 construct: purchased Sigma-Aldrich
T3 sequence (P22303 32-614): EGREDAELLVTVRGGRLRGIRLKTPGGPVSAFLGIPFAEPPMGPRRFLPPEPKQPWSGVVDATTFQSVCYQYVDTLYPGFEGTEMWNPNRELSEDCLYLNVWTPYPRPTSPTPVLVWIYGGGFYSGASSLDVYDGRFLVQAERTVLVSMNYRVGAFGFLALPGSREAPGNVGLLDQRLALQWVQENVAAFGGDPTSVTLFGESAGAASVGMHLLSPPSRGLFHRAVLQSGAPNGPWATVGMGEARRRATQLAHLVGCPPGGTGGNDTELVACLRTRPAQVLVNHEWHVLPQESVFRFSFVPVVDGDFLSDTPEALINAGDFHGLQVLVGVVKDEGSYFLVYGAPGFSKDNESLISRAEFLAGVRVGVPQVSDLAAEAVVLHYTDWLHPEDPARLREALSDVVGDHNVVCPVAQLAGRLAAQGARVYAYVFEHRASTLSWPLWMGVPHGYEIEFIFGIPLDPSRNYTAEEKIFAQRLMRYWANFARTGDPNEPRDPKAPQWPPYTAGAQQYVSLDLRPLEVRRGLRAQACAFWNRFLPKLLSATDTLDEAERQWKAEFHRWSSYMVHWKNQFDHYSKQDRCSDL
Protocol: Similarly, Ellman’s colorimetric method was used to study the inhibitory capacity of the compound on ChEs. Enzyme solution containing either recombinant hAChE (Sigma-Aldrich) at 0.5 U/mL or hBChE (Sigma-Aldrich) at 0.25 U/mL was incubated with inhibitor solution containing 10 µM of DDI199 or reference compound and 0.3 mM of DTNB (Sigma-Aldrich) for 20 minutes at 37 °C. […] In addition, kinetic of enzyme inhibition was also studied by repeating the same protocol and using five different concentrations of the substrate and four different concentrations of the inhibitor. Results were represented in a Lineweaver-Burk plot using GraphPad Prism software, and the constant of inhibition (Ki) was estimated from the point at which the line cuts the x-axis at the secondary plot.

[1] = tested on: GNS166 patient-derived glioma stem cells; experiment: MTT cell viability; assay type: cell-based; conditions: Homo sapiens, 72 h
Protocol: (§2) MTT assay was used to study cell viability. For that, cells were seeded at a density of 1.5 × 10^3 cells/well in 96-well plates, incubated overnight and then treated with increasing concentrations of DDI199. After 72 h of treatment, MTT absorbance was measured at 570 nm. GraphPad Prism software was used to analyze results and calculate IC50 values.

[2] = tested on: GNS179 patient-derived glioma stem cells; experiment: MTT cell viability; assay type: cell-based; conditions: Homo sapiens, 72 h
Protocol: as §2

[3] = tested on: Normal Human Astrocytes (NHA); experiment: MTT cell viability; assay type: cell-based; conditions: Astrocyte, 72 h
Protocol: as §2

U251-MG glioma cells = experiment: MTT cell viability; assay type: cell-based; conditions: Homo sapiens, U-251, 72 h
Protocol: as §2

U87-MG glioma cells = experiment: MTT cell viability; assay type: cell-based; conditions: Homo sapiens, U-87 MG, 72 h
Protocol: as §2

[4] = tested on: gastric cancer MKN45 cells; experiment: MTT cell viability; assay type: cell-based; conditions: Homo sapiens, MKN-45, 72 h
Protocol: as §2

[5] = tested on: lung cancer NCI-H1299 cells; experiment: MTT cell viability; assay type: cell-based; conditions: Homo sapiens, 72 h
Protocol: as §2

[6] = tested on: pancreatic cell line RWP1; experiment: MTT cell viability; assay type: cell-based; conditions: Homo sapiens, 72 h
Protocol: as §2

GNS166 cells = experiment: EdU cell proliferation assay; assay type: cell-based, human; conditions: GNS166, 5 µM
Protocol: Click-iT™ EdU Cell Proliferation Kit for Imaging (Invitrogen) was used according to the manufacturer’s instructions. Briefly, GNS166 cells were seeded and maintained overnight before DDI199 treatment. After 48 h, fresh culture medium containing 10 μM of EdU was added for 24 h and then, cells were fixed with 4% paraformaldehyde. Axio Observer 7 epifluorescence microscope was used to take pictures, which were later quantified in Qupath.

U87-MG cells [7] = experiment: Subcutaneous U87-MG tumor growth, single treatment; assay type: in vivo, athymic nude-Foxn1nu mice; conditions: day 34, 100 µM intratumoral
Protocol: (§3) For tumor growth experiments, 5 × 10^5 U87-MG cells were subcutaneously injected into two bottom flanks of athymic nude-Foxn1^nu mice, and once tumors reached a size of 25-50 mm^3, mice were sorted into groups taking into account gender and tumor size. Afterwards, mice were intratumorally treated with vehicle, SAHA 100 µM or DDI199 100 µM following a schedule of 5 days on and 2 days off. In combined treatment, mice were treated intraperitoneally with 0.5 mg/Kg of TMZ for 5 days and intratumorally following a schedule of 5 days on and 2 days off with vehicle, SAHA 100 µM or DDI199 100 µM. After 4 weeks of treatment, some mice were kept for washout experiment, while the rest were sacrificed and tumors were extracted for immunohistochemistry and to disaggregate for reinjection and oncosphere formation studies. For reinjection assays, 1.5 × 10^5 cells were subcutaneously injected and tumor size was periodically measured. Once tumors reached end-point criteria, they were extracted for immunohistochemical analysis. An external caliper was used for tumor size measurement and the tumor volume was estimated using the formula V = L · W^2 · 0.5 (where L is tumor length and W is the tumor width).

U87-MG cells [8] = experiment: Washout experiment after treatment; assay type: in vivo, athymic nude-Foxn1nu mice
Protocol: as §3

U87-MG tumor cells = experiment: Oncosphere formation from disaggregated treated tumors; assay type: cell-based
Protocol: For oncosphere formation assay, cells were cultured in non-treated 48-well plates in DMEM/F12 medium supplemented with EGF and FGF and fresh media was added every 2 days. After 7 days, oncosphere formation was documented and the number of spheres was quantified using Qupath.
as §3, with “An external caliper was used for tumor size measurement and the tumor volume was estimated using the formula V = L · W^2 · 0.5 (where L is tumor length and W is the tumor width).” left out

U87-MG cells [9] = experiment: Cell viability with TMZ and DDI199 alone or combined; assay type: cell-based, human; conditions: 72 h
Protocol: as §2

U87-MG cells [10] = experiment: Subcutaneous U87-MG tumor growth, combined treatment with TMZ; assay type: in vivo, athymic nude-Foxn1nu mice
Protocol: as §3

[11] = TMZ 0.5 mg/kg ip + DDI199 100 µM intratumoral

Chain of HDAC1 (Q13547 whole entry): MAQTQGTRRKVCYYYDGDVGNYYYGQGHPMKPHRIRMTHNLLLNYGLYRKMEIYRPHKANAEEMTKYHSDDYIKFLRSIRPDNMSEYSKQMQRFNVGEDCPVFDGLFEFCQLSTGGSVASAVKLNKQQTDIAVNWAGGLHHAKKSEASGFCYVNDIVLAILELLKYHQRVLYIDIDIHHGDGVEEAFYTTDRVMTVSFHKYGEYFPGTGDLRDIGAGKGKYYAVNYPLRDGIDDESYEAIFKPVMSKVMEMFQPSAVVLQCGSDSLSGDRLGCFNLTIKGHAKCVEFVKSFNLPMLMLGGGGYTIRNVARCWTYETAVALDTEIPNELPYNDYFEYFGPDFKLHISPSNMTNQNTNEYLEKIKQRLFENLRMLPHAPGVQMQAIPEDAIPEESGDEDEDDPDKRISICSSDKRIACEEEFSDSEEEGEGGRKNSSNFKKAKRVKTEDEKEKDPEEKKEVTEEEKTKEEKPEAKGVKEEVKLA

C#CCN(Cc1cc2cc(OCCCN3CCCCC3)ccc2n1S(=O)(=O)c1ccccc1)C(=O)CCCCCCC(=O)NO [DDI199]
IC50 (HDAC1): 0.377 µM and 0.37 µM
inhibition at 10 µM (recombinant hMAO-A): 35%
inhibition at 10 µM (recombinant hMAO-B; 10 µM compound, read-out: MAO-B inhibition percentage): 55%
IC50 (recombinant hMAO-B; read-out: MAO-B IC50): 14.9 µM
inhibition at 10 µM (recombinant hAChE): 25%
IC50 [1]: 13 µM
IC50 [2]: 5.28 µM
IC50 [3]: 7 µM
IC50 (U251-MG glioma cells): 5.45 µM
IC50 (U87-MG glioma cells): 3.23 µM
IC50 [4]: 2.61 µM
IC50 [5]: 3.33 µM
IC50 [6]: 0.88 µM
EdU positive cells (GNS166 cells): almost blocking completely
Reduction in tumor growth versus controls (U87-MG cells [7]): ~50%
Tumor weight at end-point (U87-MG cells [7]): significantly lower than the controls and also of SAHA
Mean final tumor volume (U87-MG cells [7]; 5 days on 2 days off, controls 800 mm^3): 465 mm^3
Survival in washout experiment, combined with TMZ (U87-MG cells [8]; TMZ + DDI199 versus control, TMZ alone and TMZ plus SAHA): extended survival
Time to end-point volume after washout (U87-MG cells [8]; after 4 weeks treatment, controls 10 days): 20 days
Survival in washout experiment (U87-MG cells [8]; compared to controls and SAHA (p = 0.05)): significantly longer survival
Oncospheres formed by cells from treated tumors (U87-MG tumor cells; GSC medium, 7 days): fewer oncospheres
Oncospheres from treated tumors, combined with TMZ (U87-MG tumor cells; TMZ plus DDI199 versus control and TMZ-treated cells): significantly lower number of oncospheres
Cytotoxicity in combination with TMZ (U87-MG cells [9]; 0.5 µM DDI199 + 250 µM TMZ): over 70%
Cell viability, single agent (U87-MG cells [9]; 250 µM TMZ or 0.5 µM DDI199 alone): reduced cell viability
Mean tumor volume, combined with TMZ (U87-MG cells [10]; TMZ 0.5 mg/kg ip 5 days + 100 µM intratumoral, end-point, controls 600 mm^3): 115 mm^3
Reduction in final tumor volume versus TMZ + SAHA, combined with TMZ (U87-MG cells [10]; [11]): ~70%
Reduction in final tumor volume versus controls, combined with TMZ (U87-MG cells [10]; [11]): 80%
Reduction in tumor volume versus TMZ alone, combined with TMZ (U87-MG cells [10]; [11]): 70%
Reduction in tumor weight versus TMZ + SAHA, combined with TMZ (U87-MG cells [10]; [11]): 47%
Reduction in tumor weight versus TMZ alone, combined with TMZ (U87-MG cells [10]; [11]): 65%
Reduction in tumor weight versus controls, combined with TMZ (U87-MG cells [10]; [11]): 65%

— article PMC11971462, “Generation and validation of a novel multitarget small molecule in glioblastoma” (Cell Death & Disease, 2025)
